# From patent US9248115B2, “Silibinin component for the treatment of hepatitis” (MADAUS GmbH, priority 2007, dated 2016)
# Like-named read-outs stand apart in the source and are kept apart here.
# Key:
# [1] = Example 3: plasma pharmacokinetics of free and total silibinin A and B after Legalon SIL infusion (HPLC-UV); assay type: in vivo, human; conditions: for AUC(0-∞), free silibinin: 20 mg/kg iv Legalon SIL, 8 hepatitis C patients; for AUC(0-∞), free silibinin / MRT / Tmax / clearance / Vd / half-life: plasma; for MRT / Tmax / clearance / Vd / half-life: human, intravenous, 20 mg/kg; for clearance: read-out: CL, free silibinin (converted); for Vd: read-out: Vz, free silibinin; for half-life: read-out: t1/2, free silibinin (converted)
# Experimental: An in vivo study was performed to characterize plasma concentration/time profiles of silibinin in 8 patients suffering from chronic hepatitis C who received 7 days i.v. infusion treatment with 20 mg silibinin/kg body weight (Legalon® SIL). For multiple doses of 20 mg/kg body weight, plasma concentration/time profiles and PK parameters of free and total silibinin had been observed on day 1 (=single dose conditions) and were compared with those on day 7 (=expected steady state conditions).
# The study samples were analyzed using a validated HPLC-UV method. During the assay period the analytical procedure was validated by two calibration curves per analytical run.
# [2] = biological target: T1, HCV NS5BΔ21 polymerase genotype J4 (1b) (Hepatitis C virus genotype 1b, UniProt O92972); test: Cell-free enzyme assay for HCV RdRp activity; assay type: biochemical
# T1 construct: HCV NS5BΔ21 polymerase genotype J4 (1b)
# Experimental: NS5B RNA-dependent RNA polymerase (RdRp) is an essential enzyme fir viral replication (cf. S. B. Hwang et al., Virology 1997, 227, 439-46). The following pure compounds were tested in a cell-free enzyme assay for the detection of HCV RdRp activity: silibinin A, silibinin B, isosilibinin A, isosilibinin B, silichristin, silidianin, and the silibinin ester silibinin-C-2″,3-bis(hydrogensuccinate) disodium (active ingredient of Legalon® SIL).
# Stock solutions (100 mM) of the compounds in 100% DMSO were prepared. The concentration of DMSO in all reactions was kept constant at 5%. Target enzyme for the study was HCV NS5BΔ21 polymerase genotype J4 (1b).
# The IC50 value of the silibinin ester was determined from the dose-response curve of two measurements. […] Curves were fitted to data points and IC50 values were interpolated from the resulting curves using SigmaPlot 8.0 software.
# [3] = test system: hepatitis C virus; test: Protocol 1: serum HCV RNA (TaqMan PCR) in peginterferon/ribavirin nonresponders, iv silibinin for 7 days; assay type: in vivo, human; conditions: monotherapy
# Experimental: Patients with previous nonresponse to full dose of peginterferon/ribavirin combination therapy were selected for these studies. […] Patients were required to have a liver biopsy done within 2 years prior inclusion into this study. Standard inclusion/exclusion criteria for peginterferon/ribavirin therapy were applied. Patients first received daily 10 mg/kg silibinin (Legalon Sil®, Madaus, Köln) infused over 4 hrs for 7 consecutive days. On day 1 blood was drawn for determination of oxidative stress parameters at baseline, every 30 minutes during the infusion and 2 hours after the end of the infusion. On day 8 treatment was changed to 140 mg silymarin (Legalon®, Madaus, Köln) TID per os in combination with 180 μ[…]®; Roche, Basel) and 1-1.2 g/d ribavirin (COPEGUS®; Roche, Basel). In both protocols in case of intolerance to PEG-IFN alfa2a or ribavirin, standard dose adjustment guidelines were used. Antiviral combination therapy was given for a total of 24 weeks (with the Option to stop treatment in patients without a >2 log drop at week 12); virologic responders at week 24 were offered to continue treatment for further 48 weeks. After end of the infusion period patients were tested after weeks 2, 4, and then monthly till the end of therapy at week 24. Serum HCV RNA level was determined by the TaqMan PCR assay (Cobas […] TaqMan HCV Test; limit of detection, 15 IU/mL, Roche Diagnostics).
# [4] = Serum ALT during iv silibinin monotherapy (Protocol 1); assay type: in vivo, human; conditions: 10 mg/kg/day iv for 7 days; decreased from 162±133; p=0.004
# Experimental: Patients first received daily 10 mg/kg silibinin (Legalon Sil®, Madaus, Köln) infused over 4 hrs for 7 consecutive days. On day 1 blood was drawn for determination of oxidative stress parameters at baseline, every 30 minutes during the infusion and 2 hours after the end of the infusion. On day 8 treatment was changed to 140 mg silymarin (Legalon®, Madaus, Köln) TID per os in combination with 180 μ[…]®; Roche, Basel) and 1-1.2 g/d ribavirin (COPEGUS®; Roche, Basel).
# [5] = test system: hepatitis C virus; test: Example 2: iv silibinin co-treatment during ongoing peginterferon/ribavirin, HCV-RNA; assay type: in vivo, human
# Experimental: Patients were continuously treated with 180 μg peginterferon alfa 2a and weight based ribavirin. In spite of this treatment, five patients were HCV-RNA positive after 24 weeks of therapy: Three male patients and two female patients; four patients with HCV genotype 1 and one patient with HCV genotype 3a; three patients with cirrhosis. Four patients can be regarded as naïve, whereas one patient can be regarded as […] respect to two previous therapies (24 and 48 weeks). In the course of the ongoing treatment with 180 μg peginterferon alfa 2a and weight based ribavirin, all patients were treated at least once for 14 consecutive days with 20 mg/kg/d silibinin iv. During this period, combination therapy with peginterferon/ribavirin was continued.
# [6] = test system: mouse cell line L929; assay type: cell-based
# Experimental: An in vitro study was performed to assess the cytotoxic potential of silymarin, silibinin, silibinin bis(hydrogensuccinate) disodium salt, and succinic acid by means of the XTT test using the mouse cell line L929 (cf. D. A. Scudiero et al., Cancer Res. 48, 4827-33; O, S. Weislow et al., J. Natl. Cancer Inst., 81, 577-86; N. W. Roehm et al., J. Immunol. Methods, 142). The following concentrations of the test items were tested: 9.77, 19.53, 39.06, 78.13, 156.25, 312.5, 625, 1250 μg/mL. Complete medium (RPMI 1640 containing 10% (v/v) FCS) was used as negative control. The solvent control for the test item was RPMI 1640 medium containing 10% (v/v) FCS) and 1% DMSO. The solvent control for the positive control was also RPMI 1640 medium containing 10% (v/v) FCS and 10.0% (v/v) deionized water. SDS was used as positive control. The following concentrations were applied: 3.125, 6.25, 12.5, 25, 50, 100, 125, 250 μg/mL. The incubation time was 24 hours at 37±1.5° C.
# T1 sequence (O92972 2420-2989, stated change not applied): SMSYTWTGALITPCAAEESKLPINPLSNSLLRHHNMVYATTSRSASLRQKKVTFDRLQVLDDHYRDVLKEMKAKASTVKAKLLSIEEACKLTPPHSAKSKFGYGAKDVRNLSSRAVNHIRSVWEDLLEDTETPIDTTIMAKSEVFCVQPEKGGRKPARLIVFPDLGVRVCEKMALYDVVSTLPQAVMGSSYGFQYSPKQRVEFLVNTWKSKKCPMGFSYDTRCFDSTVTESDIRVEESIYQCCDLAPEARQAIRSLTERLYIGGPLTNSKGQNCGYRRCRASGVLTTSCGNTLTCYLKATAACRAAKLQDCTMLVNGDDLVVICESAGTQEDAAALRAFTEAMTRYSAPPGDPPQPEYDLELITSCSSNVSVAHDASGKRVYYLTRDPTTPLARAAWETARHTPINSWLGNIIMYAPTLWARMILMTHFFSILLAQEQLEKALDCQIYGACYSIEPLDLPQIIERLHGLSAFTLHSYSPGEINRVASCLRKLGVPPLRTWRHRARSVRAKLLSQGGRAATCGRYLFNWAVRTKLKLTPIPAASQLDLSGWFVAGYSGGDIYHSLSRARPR
"AUC(0-tz), free silibinin ([1]; day 1) [ng·h/mL]","Cmax, free silibinin ([1]; day 1) [ng/mL]","HVD, free silibinin ([1]; day 1) [h]","AUC(0-∞), free silibinin ([1]; day 1) [ng·h/mL]","% PTF, free silibinin ([1]; day 7) [%]","AUCss, free silibinin ([1]; day 7) [ng·h/mL]","Cav, free silibinin ([1]; day 7) [ng/mL]","Cmax, free silibinin ([1]; day 7) [ng/mL]","HVD, free silibinin ([1]; day 7) [h]",MRT ([1]; day 1) [h],Tmax ([1]; day 1) [h],clearance ([1]; day 1) [mL/min/kg],Vd ([1]; day 1) [L/kg],half-life ([1]; day 1) [h],MRT ([1]; day 7) [h],clearance ([1]; day 7) [mL/min/kg],Vd ([1]; day 7) [L/kg],half-life ([1]; day 7) [h],Compound,also measured
3302 ± 1551,316 ± 108,10.12 ± 4.29,3614 ± 1648,164.00 ± 45.33,4095 ± 1942,171 ± 81,315 ± 119,11.87 ± 2.64,8.49 ± 2.64,3.73 ± 1.22,117,51.4 ± 12.7,4.58 ± 1.35,9.88 ± 1.86,98.3,55.3 ± 18.5,6.85 ± 1.29,COc1cc([C@H]2Oc3cc([C@H]4Oc5cc(O)cc(O)c5C(=O)[C@@H]4O)ccc3O[C@@H]2CO)ccc1O [Silibinin A],
559 ± 339,90 ± 44,6.09 ± 2.14,753 ± 397,305.24 ± 80.46,1041 ± 627,43 ± 26,120 ± 54,7.17 ± 1.63,8.81 ± 6.12,4.03 ± 0.04,747,286 ± 164,5.16 ± 4.96,6.27 ± 2.39,447,140 ± 49,4.35 ± 1.66,COc1cc([C@@H]2Oc3cc([C@H]4Oc5cc(O)cc(O)c5C(=O)[C@@H]4O)ccc3O[C@H]2CO)ccc1O [Silibinin B],
,,,,,,,,,,,,,,,,,,"COc1cc(C2Oc3cc(C4Oc5cc(O)cc(O)c5C(=O)C4OC(=O)CCC(=O)O)ccc3OC2COC(=O)CCC(=O)O)ccc1O (stereo not drawn) [silibinin C-2′,3-bis(hydrogensuccinate)]","IC50 [2]: 47 ± 14 µM; NS5B inhibition compared with six purified constituents of silymarin ([2]; FIG. 11 vs FIG. 12): most efficient; mean log decline of HCV RNA within one week ([3]; 10 mg/kg/day iv for 7 days): 1.32±0.55 log; Serum HCV RNA at day 8 (mean±SD) ([3]; 10 mg/kg/day iv over 4 h for 7 days, baseline 6.59±0.53, 16 nonresponders, p<0.001): 5.26±0.81 log IU/ml; ALT after iv monotherapy [4]: 118±107 U/1; viral load after second co-treatment, FIG. 7 patient ([5]; 20 mg/kg/day iv 14 days, permanently depressed): below the detection limit; viral load rebound after the first administration interval, FIG. 7 patient ([5]; person): about 2 IU/mL; viral load after co-treatment, FIG. 8 patient ([5]; person, 20 mg/kg/day iv 14 days after 30 weeks, from about log 4 IU/mL, permanent): below the detection limit; viral load after co-treatment, FIG. 9 patient ([5]; person, 20 mg/kg/day iv 14 days after 72 weeks): far below the detection limit; viral load after first co-treatment, FIG. 7 patient ([5]; person, 20 mg/kg/day iv 14 days from week 24, from about log 4.5 IU/mL): below the detection limit"
,,,,,,,,,,,,,,,,,,silymarin,calculated XTT50 value [6]: 35.2 µg/mL; cytotoxic potential higher than that of silibinin [6]: ~100%
